# Assay results as given in patent publication US7220731B2, “Derivatised carbohydrates and their use in solid delivery systems” (Elan Drug Delivery Limited, priority 2000, dated 2007).
# Experiments:
# [1] = glass temperature of the compound; assay type: physicochemical
# [2] = log pow; assay type: physicochemical; details: octanol/water
# [3] = water solubility (glass); assay type: physicochemical
# [4] = physical stability (t½ induction) at 40° C./75% RH; assay type: physicochemical
# [5] = hydrolytic stability (t½) at 20° C.; assay type: physicochemical; details: buffer
compound,measurement,setting,value
"CC(=O)OC1C(O[C@@H]2OC(COC(=O)C3O[C@H](OC(C)=O)C(OC(C)=O)C(OC(C)=O)[C@@H]3OC(C)=O)[C@@H](OC(C)=O)C(OC(C)=O)C2OC(C)=O)OC(COC(=O)C2O[C@H](OC(C)=O)C(OC(C)=O)C(OC(C)=O)[C@H]2OC(C)=O)[C@@H](OC(C)=O)C1OC(C)=O (stereo partly drawn) [Example 1, di(β-tetraacetylglucuronyl)hexaacetyltrehalose]",glass temperature,[1],110 °C
same,logP,[2],2.9
same,water solubility (glass),[3],9.5 ppm
same,physical stability (t½ induction),[4],>1176 h
same,half-life,[5]; pH 4,12 h
same,half-life,[5]; pH 7,14 h
same,half-life,[5]; pH 9,< 1 h
same,melting point,,156 °C
